Where two headings read alike, the source gives them in different places.
Legend:
MLL-AF9 BMC = assay: Cell proliferation assay (CellTiter-Glo); type: cell-based
Method: Example 9: Cell proliferation assay. The ability of a compound of the present disclosure to inhibit the growth of cells, such as human leukemia cell, acute myeloid leukemia cell, cells with an MLL fusion, control cells without an MLL fusion, VCaP, LNCaP, 22RV1, DU145, LNCaP-AR, MV4; 11, KOPN-8, ML-2, MOLM-13, RS4; 11, SEM, bone marrow cells (BMCs), MLL-AF9, MLL-AF4, MLL-ENL, MLL-CBP, MLL-GAS7, MLL-AF1p, MLL-AF6, HM-2, E2A-HLF, REH, U937, K562, KG-1, HL-60 and NB4 cells, is tested using a cell viability assay, such as the Promega CellTiter-Glo® Luminescent Cell Viability Assay (Promega Technical Bulletin, 2015, “CellTiter-Glo® Luminescent Cell Viability Assay”: 1-15, herein incorporated by reference in its entirety). Cells are plated at relevant concentrations, for example about 1×10^5-2×10^5 cells per well in a 96-well plate. A compound of the present disclosure is added at a concentration up to about 2 μM with eight, 2-fold serial dilutions for each compound. Cells are incubated at 37° C. for a period of time, for example, 72 hours, then cells in the control wells are counted. Media is changed to restore viable cell numbers to the original concentration, and compounds are re-supplied. Proliferation is measured about 72 hours later using Promega CellTiter-Glo® reagents, as per kit instructions.

MV4; 11-luc tumors = assay: Efficacy study in xenotransplantation mouse model of MLL leukemia (luminescence); type: in vivo; conditions: NSG mice, 120 mg/kg b.i.d. oral gavage, 6 days of treatment
Method: Example 20: Efficacy study in xenotransplantation mouse model ofMLL leukemia. […] Luciferase expressing human MV4; 11 leukemia cells (MV4; 11-luc) were engrafted intravenously via tail vein injection (1×10^7 cells/animal) When the mean luminescence of the cells reached approximately 1.5×10^6, the tumor-bearing mice were randomly assigned to a vehicle control or a compound treatment group (5 animals per group). Animals in each of the treatment groups were administered a different compound of the present disclosure by oral gavage (120 mg/kg b.i.d, 150 mg/kg b.i.d., 200 mg/kg b.i.d., or 200 mg/kg q.d.). Body weight was measured daily, while mean luminescence was measured 6 days after initiating the treatment with compound or vehicle.

Menin MLL 4-43 = target: T1, Menin MLL 4-43 (Homo sapiens, UniProt O00255); assay: Fluorescence polarization (FP) competition assay of the menin-MLL interaction; type: binding
T1 sequence (O00255 1-610): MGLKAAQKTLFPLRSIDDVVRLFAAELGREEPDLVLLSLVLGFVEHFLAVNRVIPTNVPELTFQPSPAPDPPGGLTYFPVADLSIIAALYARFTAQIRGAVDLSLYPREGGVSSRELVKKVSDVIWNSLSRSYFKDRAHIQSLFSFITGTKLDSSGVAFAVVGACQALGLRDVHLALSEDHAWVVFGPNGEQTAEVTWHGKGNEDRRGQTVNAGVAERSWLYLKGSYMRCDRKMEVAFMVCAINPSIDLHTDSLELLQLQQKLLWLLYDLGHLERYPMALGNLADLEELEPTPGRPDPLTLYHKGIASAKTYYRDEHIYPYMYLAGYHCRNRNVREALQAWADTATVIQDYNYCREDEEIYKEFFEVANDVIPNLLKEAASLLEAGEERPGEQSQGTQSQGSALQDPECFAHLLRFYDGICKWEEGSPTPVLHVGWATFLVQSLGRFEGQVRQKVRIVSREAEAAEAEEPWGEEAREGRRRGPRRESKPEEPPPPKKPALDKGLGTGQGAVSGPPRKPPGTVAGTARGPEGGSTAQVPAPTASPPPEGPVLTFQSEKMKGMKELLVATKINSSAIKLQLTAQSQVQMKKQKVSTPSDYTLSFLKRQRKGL

[1] = system: MLL fusion protein target genes HOXA9, DLX2, MEIS1 and differentiation marker CD11B; assay: qRT-PCR gene expression in bone marrow samples of treated xenotransplantation mice; type: in vivo, mouse; conditions: Day 7 of treatment, qRT-PCR normalized to GAPDH
Method: Animals were sacrificed on Day 7 of treatment and bone marrow samples collected and prepared for gene expression analysis. Expression levels of MLL fusion protein target genes HOXA9, DLX2, and/or MEIS1 were measured by qRT-PCR and are presented in FIG. 6, FIG. 9 and FIG. 12 as fold changes normalized to GAPDH expression.

[2] = system: MV4; 11 cells (MLL-AF4 AML); assay: MTT cell proliferation assay; type: cell-based, human
Method: (§1) Example 18: Cell proliferation assays. The ability of a compound of the present disclosure to inhibit the growth of cells was tested in both MLL leukemia cell lines (e.g., MV4; 11, MOLM13 and/or KOPN8) and control cell lines (e.g., K562, REH, U937, KG-1, and/or HL-60) using the MTT cell proliferation assay (ATCC® 30-1010K). […] Cells were plated at about 1×10^5 cells per well in a 96-well plate. A compound of the present disclosure was added at a concentration up to about 2 μM with seven, 2-fold serial dilutions for each compound. Cells were incubated at 37° C. for 72 hours, then cells in the control wells were counted. Media was changed to restore viable cell numbers to the original concentration, and compounds were re-supplied. Proliferation was measured 96 hours later using MTT reagents, as per kit instructions. […] The GIso value of a compound of the present disclosure, such as Compound D of FIG. 11, was 10 nM in MV4; 11 cells (MLL-AF4 AML), 17 nM in MOLM13 cells (MLL-AF9 AML), 18 nM in KOPN8 (MLL-ENL AML) cells, greater than 2000 nM in HL-60 cells, and greater than 2000 nM in U937 cells. REH, K562, KG-1, and U937 cells are control cell lines without MLL fusions.

[3] = system: MOLM13 cells (MLL-AF9 AML); assay: MTT cell proliferation assay; type: cell-based
Method: as §1

[4] = system: KOPN8 (MLL-ENL AML) cells; assay: MTT cell proliferation assay; type: cell-based
Method: as §1

MOLM13 cells = assay: Survival study in xenotransplantation MOLM13 xenograft model; type: in vivo, mouse
Method: For survival studies in the xenotransplantation MOLM13 xenograft model, 6 to 8-week old female NSG mice were intravenously injected with 0.5×10^6 MOLM13 cells harboring […] translocation. At day 4 after transplantation, treatment was initiated with Compound C, 75 mg/kg, b.i.d., p.o. or vehicle (20% 2-hydroxypropyl-b-cyclodextrin with 5% cremophore) and was continued for 16 consecutive days in the compound treated mice or until terminal leukemia developed in the vehicle-treated mice.
Similarly, a 120 mg/kg b.i.d. treatment regimen of Compound D was initiated on day 6 after MOLM13 transplantation and continued for 16 consecutive days in the compound treated mice or until terminal leukemia developed in the vehicle-treated mice.

U937 cells = assay: MTT cell proliferation assay, control cell line; type: cell-based
Method: as §1

HL-60 cells = assay: MTT cell proliferation assay, control cell line; type: cell-based; conditions: HL-60 cells (control)
Method: as §1

Cc1nc(NC2CCN(Cc3ccc4c(cc(C#N)n4C[C@H](C)N4CCC(S(C)(=O)=O)CC4)c3C)CC2)c2cc(CC(F)(F)F)sc2n1 [Compound 165]
GI50 (MLL-AF9 BMC): < 0.01 µM | Tumor growth (luminescence) relative to vehicle control (MV4; 11-luc tumors): inhibited tumor growth and induced tumor regression | IC50 (Menin MLL 4-43; fluorescence polarization assay, read-out: Menin MLL 4-43 IC50): < 0.05 µM | IC50 (Menin MLL 4-43; read-out: IC50 value (ability to disrupt the menin-MLL interaction, per Example 6)): < 0.05 µM

Cc1nc(NC2CCN(Cc3ccc4c(cc(C#N)n4C[C@H](C)N4CCC(S(C)(=O)=O)CC4)c3C)CC2)c2cc(CC(F)(F)F)sc2n1 [Compound D]
Expression level of HOXA9 [1]: substantially reduced | Expression level of MEIS1 [1]: substantially reduced | Expression of differentiation marker CD1 lb [1]: elevated | GI50 [2]: 0.01 µM | GI50 [3]: 0.017 µM | GI50 [4]: 0.018 µM | Median survival time (MOLM13 cells; NSG mice, 120 mg/kg b.i.d., 16 consecutive days from day 6 after MOLM13 transplantation): 24 days | Survival benefit (MOLM13 cells; versus vehicle control group): 75% | Survival benefit (MOLM13 cells; versus vehicle control group (16 days)): 18 days | GI50 (U937 cells): > 2 µM | GI50 (HL-60 cells): > 2 µM

— patent US11673898B2, “Substituted inhibitors of menin-MLL and methods of use” (Kura Oncology, Inc., priority 2016, dated 2023)
